Results: patent US20210338846A1, “COMPETITIVE PROSTATE-SPECIFIC MEMBRANE ANTIGEN (PSMA) BINDING AGENTS FOR REDUCTION OF NON-TARGET ORGAN UPTAKE OF RADIOLABELED PSMA INHIBITORS FOR PSMA POSITIVE TUMOR IMAGING AND RADIOPHARMACEUTICAL THERAPY” (The Johns Hopkins University, priority 2018, published 2021)
Read-outs that look alike come from different tables or passages of the source.

Assays:
[1] = test system: PSMA+ PC-3 PiP and PSMA− PC-3 flu tumors; format: in vivo; conditions: early time points
[2] = test system: PSMA+ PC-3 PiP and PSMA− PC-3 flu tumors
[3] = 1 h, co-injection 0.5 nmole YC-I-27
[4] = 2 hours (footnote a), co-injection 0.5 nmole YC-I-27
[5] = 24 h, co-injection 0.5 nmole YC-I-27
[6] = 4 h, co-injection 0.5 nmole YC-I-27

O=C(O)CC[C@H](NC(=O)N[C@@H](CCCCN(Cc1ccc(I)cc1)C(=O)CCCCNC(=O)CN1CCN(CC(=O)O)CCN(CC(=O)O)CCN(CC(=O)O)CC1)C(=O)O)C(=O)O [VK-02-90]
effect of competing inhibitor on uptake of [125I]VK-02-90-Lu in kidneys, salivary glands and lacrimal glands [1]: effective CI

O=C(O)CC[C@H](NC(=O)N[C@@H](CCC(=O)NCCc1ccc([125I])cc1)C(=O)O)C(=O)O [[^125I]HS-549]
Biodistribution: Blood ([2]; 1 h, No CI): 5.9 ± 1.0 % injected dose/gram
Biodistribution: Flu tumor ([2]; 1 h, No CI): 2.2 ± 0.5 % injected dose/gram
Biodistribution: PiP tumor ([2]; 1 h, No CI): 78 ± 19 % injected dose/gram
Biodistribution: kidneys ([2]; 1 h, No CI): 106 ± 19 % injected dose/gram
Biodistribution: spleen ([2]; 1 h, No CI): 6.8 ± 3.4 % injected dose/gram
Biodistribution: stomach ([2]; 1 h, No CI): 0.9 ± 0.2 % injected dose/gram
Biodistribution: thyroid ([2]; 1 h, No CI): 1.2 ± 0.4 % injected dose/gram
Biodistribution: Blood [2, 3]: 2.6 ± 0.6 % injected dose/gram
Biodistribution: Flu tumor [2, 3]: 1.0 ± 0.45 % injected dose/gram
Biodistribution: Lacrimal gland [2, 3]: 1.1 ± 0.4 % injected dose/gram
Biodistribution: PiP tumor [2, 3]: 31 ± 4.2 % injected dose/gram
Biodistribution: Salivary gland [2, 3]: 1.0 ± 0.2 % injected dose/gram
Biodistribution: kidneys [2, 3]: 12.1 ± 1.9 % injected dose/gram
Biodistribution: spleen [2, 3]: 0.8 ± 0.2 % injected dose/gram
Biodistribution: stomach [2, 3]: 0.8 ± 0.3 % injected dose/gram
Biodistribution: thyroid [2, 3]: 5.6 ± 9.2 % injected dose/gram
Biodistribution: Blood [2, 4]: 0.8 ± 0.1 % injected dose/gram
Biodistribution: Flu tumor [2, 4]: 0.3 ± 0.15 % injected dose/gram
Biodistribution: Lacrimal gland [2, 4]: 0.5 ± 0.3 % injected dose/gram
Biodistribution: PiP tumor [2, 4]: 39 ± 4 % injected dose/gram
Biodistribution: Salivary gland [2, 4]: 0.4 ± 0.2 % injected dose/gram
Biodistribution: kidneys [2, 4]: 2.8 ± 0.8 % injected dose/gram
Biodistribution: spleen [2, 4]: 0.4 ± 0.1 % injected dose/gram
Biodistribution: stomach [2, 4]: 0.3 ± 0.1 % injected dose/gram
Biodistribution: thyroid [2, 4]: 0.3 ± 0.1 % injected dose/gram
Biodistribution: Blood ([2]; 4 h, No CI): 2.9 ± 0.3 % injected dose/gram
Biodistribution: Flu tumor ([2]; 4 h, No CI): 1.5 ± 0.3 % injected dose/gram
Biodistribution: PiP tumor ([2]; 4 h, No CI): 75 ± 13 % injected dose/gram
Biodistribution: kidneys ([2]; 4 h, No CI): 97 ± 39 % injected dose/gram
Biodistribution: spleen ([2]; 4 h, No CI): 2.7 ± 0.8 % injected dose/gram
Biodistribution: stomach ([2]; 4 h, No CI): 0.5 ± 0.2 % injected dose/gram
Biodistribution: thyroid ([2]; 4 h, No CI): 0.7 ± 0.3 % injected dose/gram
Biodistribution: Blood ([2]; 21 hours (footnote b), No CI): 1.4 ± 0.4 % injected dose/gram
Biodistribution: Flu tumor ([2]; 21 hours (footnote b), No CI): 0.4 ± 0.2 % injected dose/gram
Biodistribution: PiP tumor ([2]; 21 hours (footnote b), No CI): 23 ± 2 % injected dose/gram
Biodistribution: kidneys ([2]; 21 hours (footnote b), No CI): 3.1 ± 1.6 % injected dose/gram
Biodistribution: spleen ([2]; 21 hours (footnote b), No CI): 0.3 ± 0.1 % injected dose/gram
Biodistribution: stomach ([2]; 21 hours (footnote b), No CI): 0.1 ± 0.04 % injected dose/gram
Biodistribution: thyroid ([2]; 21 hours (footnote b), No CI): 0.4 ± 0.05 % injected dose/gram
Biodistribution: Blood [2, 5]: 0.6 ± 0.3 % injected dose/gram
Biodistribution: Flu tumor [2, 5]: 0.2 ± 0.2 % injected dose/gram
Biodistribution: Lacrimal gland [2, 5]: 0.2 ± 0.1 % injected dose/gram
Biodistribution: PiP tumor [2, 5]: 35 ± 5 % injected dose/gram
Biodistribution: Salivary gland [2, 5]: 0.2 ± 0.1 % injected dose/gram
Biodistribution: kidneys [2, 5]: 0.7 ± 0.3 % injected dose/gram
Biodistribution: spleen [2, 5]: 0.1 ± 0.07 % injected dose/gram
Biodistribution: stomach [2, 5]: 0.1 ± 0.05 % injected dose/gram
Biodistribution: thyroid [2, 5]: 0.5 ± 0.8 % injected dose/gram

O=C(O)CC[C@H](NC(=O)N[C@@H](CCCCN(Cc1ccc([125I])cc1)C(=O)CCCCNC(=O)CN1CCN(CC(=O)O)CCN(CC(=O)O)CCN(CC(=O)O)CC1)C(=O)O)C(=O)O [[^125I]VK-02-90]
Biodistribution: Blood ([2]; 1 h, No CI): 1.1 ± 0.3 % injected dose/gram
Biodistribution: Flu tumor ([2]; 1 h, No CI): 1.4 ± 0.6 % injected dose/gram
Biodistribution: Lacrimal gland ([2]; 1 h, No CI): 17.4 ± 6.0 % injected dose/gram
Biodistribution: PiP tumor ([2]; 1 h, No CI): 58 ± 14 % injected dose/gram
Biodistribution: Salivary gland ([2]; 1 h, No CI): 5.1 ± 3.4 % injected dose/gram
Biodistribution: kidneys ([2]; 1 h, No CI): 194 ± 25 % injected dose/gram
Biodistribution: spleen ([2]; 1 h, No CI): 40 ± 16 % injected dose/gram
Biodistribution: stomach ([2]; 1 h, No CI): 1.1 ± 0.3 % injected dose/gram
Biodistribution: Blood [2, 3]: 0.45 ± 0.06 % injected dose/gram
Biodistribution: Flu tumor [2, 3]: 0.37 ± 0.05 % injected dose/gram
Biodistribution: Lacrimal gland [2, 3]: 0.75 ± 0.33 % injected dose/gram
Biodistribution: PiP tumor [2, 3]: 35 ± 10 % injected dose/gram
Biodistribution: Salivary gland [2, 3]: 0.46 ± 0.06 % injected dose/gram
Biodistribution: kidneys [2, 3]: 10.0 ± 1.1 % injected dose/gram
Biodistribution: spleen [2, 3]: 0.8 ± 0.14 % injected dose/gram
Biodistribution: stomach [2, 3]: 0.33 ± 0.07 % injected dose/gram
Biodistribution: thyroid [2, 3]: 0.5 ± 0.3 % injected dose/gram
Biodistribution: Blood ([2]; 4 h, No CI): 0.2 ± 0.03 % injected dose/gram
Biodistribution: Flu tumor ([2]; 4 h, No CI): 0.3 ± 0.1 % injected dose/gram
Biodistribution: Lacrimal gland ([2]; 4 h, No CI): 1.9 ± 0.5 % injected dose/gram
Biodistribution: PiP tumor ([2]; 4 h, No CI): 38 ± 13 % injected dose/gram
Biodistribution: Salivary gland ([2]; 4 h, No CI): 0.7 ± 0.2 % injected dose/gram
Biodistribution: kidneys ([2]; 4 h, No CI): 162 ± 3.5 % injected dose/gram
Biodistribution: spleen ([2]; 4 h, No CI): 4.7 ± 1.2 % injected dose/gram
Biodistribution: stomach ([2]; 4 h, No CI): 0.4 ± 0.2 % injected dose/gram
Biodistribution: Blood [2, 6]: 0.02 ± 0.004 % injected dose/gram
Biodistribution: Flu tumor [2, 6]: 0.7 ± 0.01 % injected dose/gram
Biodistribution: Lacrimal gland [2, 6]: 0.14 ± 0.08 % injected dose/gram
Biodistribution: PiP tumor [2, 6]: 35 ± 5.0 % injected dose/gram
Biodistribution: Salivary gland [2, 6]: 0.08 ± 0.04 % injected dose/gram
Biodistribution: kidneys [2, 6]: 2.2 ± 0.3 % injected dose/gram
Biodistribution: spleen [2, 6]: 0.2 ± 0.1 % injected dose/gram
Biodistribution: stomach [2, 6]: 0.2 ± 0.07 % injected dose/gram
Biodistribution: thyroid [2, 6]: 0.14 ± 0.1 % injected dose/gram
Biodistribution: Blood ([2]; 24 h, No CI): 0.02 ± 0.01 % injected dose/gram
Biodistribution: Flu tumor ([2]; 24 h, No CI): 0.04 ± 0.02 % injected dose/gram
Biodistribution: Lacrimal gland ([2]; 24 h, No CI): 0.5 ± 0.2 % injected dose/gram
Biodistribution: PiP tumor ([2]; 24 h, No CI): 51 ± 7 % injected dose/gram
Biodistribution: Salivary gland ([2]; 24 h, No CI): 0.3 ± 0.3 % injected dose/gram
Biodistribution: kidneys ([2]; 24 h, No CI): 31 ± 14 % injected dose/gram
Biodistribution: spleen ([2]; 24 h, No CI): 0.7 ± 0.4 % injected dose/gram
Biodistribution: stomach ([2]; 24 h, No CI): 0.05 ± 0.03 % injected dose/gram
Biodistribution: Blood [2, 5]: 0.001 ± 0.001 % injected dose/gram
Biodistribution: Flu tumor [2, 5]: 0.02 ± 0.01 % injected dose/gram
Biodistribution: Lacrimal gland [2, 5]: 0.02 ± 0.04 % injected dose/gram
Biodistribution: PiP tumor [2, 5]: 33 ± 6 % injected dose/gram
Biodistribution: Salivary gland [2, 5]: 0.02 ± 0.01 % injected dose/gram
Biodistribution: kidneys [2, 5]: 0.3 ± 0.03 % injected dose/gram
Biodistribution: spleen [2, 5]: 0.05 ± 0.04 % injected dose/gram
Biodistribution: stomach [2, 5]: 0.06 ± 0.02 % injected dose/gram
Biodistribution: thyroid [2, 5]: 0.04 ± 0.08 % injected dose/gram
PSMA+ tumor uptake (in words) ([2]; Tables 1, 2, and 3): high PSMA+ tumor uptake
kidney uptake (in words) ([2]; Tables 1, 2, and 3): high initial kidney uptake which clears over time

O=C([O-])CN1CCN(CC(=O)[O-])CCN(CC(=O)NCCCCC(=O)N(CCCC[C@H](NC(=O)N[C@@H](CCC(=O)O)C(=O)O)C(=O)O)Cc2ccc([211At])cc2)CCN(CC(=O)[O-])CC1.[Lu+3] [[^211At]VK-02-90-Lu]
Biodistribution: Blood ([2]; 1 h, No CI): 0.8 ± 0.2 % injected dose/gram
Biodistribution: Flu tumor ([2]; 1 h, No CI): 0.4 ± 0.2 % injected dose/gram
Biodistribution: Lacrimal gland ([2]; 1 h, No CI): 0.8 ± 0.9 % injected dose/gram
Biodistribution: PiP tumor ([2]; 1 h, No CI): 31 ± 5 % injected dose/gram
Biodistribution: Salivary gland ([2]; 1 h, No CI): 0.5 ± 0.2 % injected dose/gram
Biodistribution: kidneys ([2]; 1 h, No CI): 90 ± 43 % injected dose/gram
Biodistribution: spleen ([2]; 1 h, No CI): 2.5 ± 0.9 % injected dose/gram
Biodistribution: stomach ([2]; 1 h, No CI): 0.4 ± 0.1 % injected dose/gram
Biodistribution: Blood [2, 3]: 0.5 ± 0.1 % injected dose/gram
Biodistribution: Flu tumor [2, 3]: 0.4 ± 0.1 % injected dose/gram
Biodistribution: Lacrimal gland [2, 3]: 0 % injected dose/gram
Biodistribution: PiP tumor [2, 3]: 25 ± 4 % injected dose/gram
Biodistribution: Salivary gland [2, 3]: 0.4 ± 0.2 % injected dose/gram
Biodistribution: kidneys [2, 3]: 2.2 ± 0.6 % injected dose/gram
Biodistribution: spleen [2, 3]: 0.3 ± 0.4 % injected dose/gram
Biodistribution: stomach [2, 3]: 0.4 ± 0.2 % injected dose/gram
Biodistribution: Blood ([2]; 4 h, No CI): 0.1 ± 0.03 % injected dose/gram
Biodistribution: Flu tumor ([2]; 4 h, No CI): 0.1 ± 0.1 % injected dose/gram
Biodistribution: Lacrimal gland ([2]; 4 h, No CI): 0.3 ± 1.1 % injected dose/gram
Biodistribution: PiP tumor ([2]; 4 h, No CI): 17 ± 5 % injected dose/gram
Biodistribution: Salivary gland ([2]; 4 h, No CI): 0.2 ± 0.1 % injected dose/gram
Biodistribution: kidneys ([2]; 4 h, No CI): 2.1 ± 0.6 % injected dose/gram
Biodistribution: spleen ([2]; 4 h, No CI): 0 % injected dose/gram
Biodistribution: stomach ([2]; 4 h, No CI): 0.3 ± 0.2 % injected dose/gram
Biodistribution: Blood [2, 6]: 0.2 ± 0.1 % injected dose/gram
Biodistribution: Flu tumor [2, 6]: 0.0 ± 0.04 % injected dose/gram
Biodistribution: Lacrimal gland [2, 6]: 0 % injected dose/gram
Biodistribution: PiP tumor [2, 6]: 19 ± 5 % injected dose/gram
Biodistribution: Salivary gland [2, 6]: 0.3 ± 0.2 % injected dose/gram
Biodistribution: kidneys [2, 6]: 0.7 ± 0.1 % injected dose/gram
Biodistribution: spleen [2, 6]: 0.8 ± 0.5 % injected dose/gram
Biodistribution: stomach [2, 6]: 0.4 ± 0.05 % injected dose/gram
Biodistribution: Blood ([2]; 24 h, No CI): 0 % injected dose/gram
Biodistribution: Flu tumor ([2]; 24 h, No CI): 0 % injected dose/gram
Biodistribution: Lacrimal gland ([2]; 24 h, No CI): 0 % injected dose/gram
Biodistribution: PiP tumor ([2]; 24 h, No CI): 9.5 ± 1.0 % injected dose/gram
Biodistribution: Salivary gland ([2]; 24 h, No CI): 0 % injected dose/gram
Biodistribution: kidneys ([2]; 24 h, No CI): 0.02 ± 0.02 % injected dose/gram
Biodistribution: spleen ([2]; 24 h, No CI): 0 % injected dose/gram
Biodistribution: stomach ([2]; 24 h, No CI): 0 % injected dose/gram
Biodistribution: Blood [2, 5]: 0.03 ± 0.3 % injected dose/gram
Biodistribution: Flu tumor [2, 5]: 0.2 ± 0.3 % injected dose/gram
Biodistribution: Lacrimal gland [2, 5]: 0 % injected dose/gram
Biodistribution: PiP tumor [2, 5]: 18 ± 8 % injected dose/gram
Biodistribution: Salivary gland [2, 5]: 0 % injected dose/gram
Biodistribution: kidneys [2, 5]: 0.4 ± 0.5 % injected dose/gram
Biodistribution: spleen [2, 5]: 02.5 ± 4.3 % injected dose/gram
Biodistribution: stomach [2, 5]: 0.4 ± 0.7 % injected dose/gram
